The source of these data is article PMC10577698, “Development of Novel ^11C-Labeled Selective Orexin-2 Receptor Radioligands for Positron Emission Tomography Imaging” (ACS Medicinal Chemistry Letters, 2023).

Read-outs that look alike come from different tables or passages of the source.

A short description of series [1]: Stability of radiotracer in saline. It counts as physicochemical. The note with it: within 90 min. The procedure:
Based on the favorable in vitro pharmacological and ADME properties, compounds 1 and 2 were labeled with carbon-11 and evaluated as OX2 PET radioligands. […] The reaction mixtures were then diluted with the HPLC buffer and purified by a semipreparative reverse HPLC to give [^11C]1 and [^11C]2 in 71% and 20% radiochemical yields (decay-corrected) with the molar activities of 210 GBq/μmol and 185 GBq/μmol, respectively.

Another series has as its system rat brain. Briefly: Dynamic PET imaging in Sprague-Dawley rats.
The target in another series is T1, orexin 2 receptors (Rattus norvegicus, UniProt P56719).
T1 sequence (P56719 1-460): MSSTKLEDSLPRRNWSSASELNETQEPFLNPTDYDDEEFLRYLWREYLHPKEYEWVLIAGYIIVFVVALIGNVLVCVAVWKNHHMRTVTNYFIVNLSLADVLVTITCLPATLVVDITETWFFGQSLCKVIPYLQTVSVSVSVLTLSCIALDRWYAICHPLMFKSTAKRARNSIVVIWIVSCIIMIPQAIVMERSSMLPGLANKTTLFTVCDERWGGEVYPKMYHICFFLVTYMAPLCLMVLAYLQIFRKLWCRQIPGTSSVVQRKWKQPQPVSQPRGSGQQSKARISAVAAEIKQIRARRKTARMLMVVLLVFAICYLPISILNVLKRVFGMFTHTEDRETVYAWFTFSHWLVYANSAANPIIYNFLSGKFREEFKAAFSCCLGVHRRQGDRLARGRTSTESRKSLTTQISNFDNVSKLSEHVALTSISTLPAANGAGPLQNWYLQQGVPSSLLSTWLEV
The series can be described thus: In vitro autoradiography in rat brain sections. The note with it: for in vitro binding specificity: rat brain sections, autoradiography; for effect of blocker on radioactivity in OX2-rich brain regions: blocker 10 μM, autoradiography with [11C]1 or [11C]2, rat brain sections.

The next series deals with T2, CYP19A (Homo sapiens, UniProt P11511).
T2 sequence (P11511 1-503): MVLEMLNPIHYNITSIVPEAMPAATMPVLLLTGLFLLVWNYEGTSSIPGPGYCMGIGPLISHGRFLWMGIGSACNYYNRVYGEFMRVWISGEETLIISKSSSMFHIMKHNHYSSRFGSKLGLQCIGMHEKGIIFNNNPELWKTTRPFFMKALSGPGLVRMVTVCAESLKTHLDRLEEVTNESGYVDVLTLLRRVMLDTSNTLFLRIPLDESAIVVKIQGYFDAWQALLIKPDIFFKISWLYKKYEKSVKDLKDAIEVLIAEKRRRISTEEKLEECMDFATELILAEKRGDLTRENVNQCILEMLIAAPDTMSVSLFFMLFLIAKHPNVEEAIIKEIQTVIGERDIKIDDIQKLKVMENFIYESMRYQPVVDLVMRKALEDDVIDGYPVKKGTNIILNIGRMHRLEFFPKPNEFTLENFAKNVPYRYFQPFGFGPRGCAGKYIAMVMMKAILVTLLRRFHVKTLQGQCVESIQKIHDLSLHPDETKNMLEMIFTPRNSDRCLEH

In a further series the target is CYP2C9 (Homo sapiens, UniProt P11712). The series can be described thus: biochemical.
Another series concerns the target CYP2C19 (Homo sapiens, UniProt P33261). Briefly: biochemical.
Another series has as its target CYP2D6 (Homo sapiens, UniProt P10635). The series can be described thus: biochemical.
Another series has as its target CYP3A4 (Homo sapiens, UniProt P08684). The series can be described thus: biochemical.
The target in the next series is hERG (Homo sapiens, UniProt Q12809). Briefly: biochemical.
In another series the target is T3, CYP1A2 (Homo sapiens, UniProt P05177).
T3 sequence (P05177 1-516): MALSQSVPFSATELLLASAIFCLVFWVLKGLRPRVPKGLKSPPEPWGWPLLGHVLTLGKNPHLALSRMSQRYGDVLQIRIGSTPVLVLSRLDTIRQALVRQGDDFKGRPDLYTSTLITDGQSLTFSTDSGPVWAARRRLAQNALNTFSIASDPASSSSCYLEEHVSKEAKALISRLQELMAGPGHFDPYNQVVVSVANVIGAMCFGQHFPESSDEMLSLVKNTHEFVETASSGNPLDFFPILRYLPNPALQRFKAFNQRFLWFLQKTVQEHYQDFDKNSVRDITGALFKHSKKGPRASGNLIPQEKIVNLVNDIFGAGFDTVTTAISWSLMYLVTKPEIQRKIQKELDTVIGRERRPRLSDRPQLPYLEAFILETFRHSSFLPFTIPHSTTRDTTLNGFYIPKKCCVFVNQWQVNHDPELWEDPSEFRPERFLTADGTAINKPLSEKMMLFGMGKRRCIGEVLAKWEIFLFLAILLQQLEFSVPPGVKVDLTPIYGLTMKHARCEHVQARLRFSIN
Briefly: CYP450 inhibition assay.

For series [2], the target named is peripheral benzodiazepine receptor (Rattus norvegicus, UniProt P16257). The series can be described thus: Off-target binding (NIMH PDSP), peripheral benzodiazepine receptor.
For another series, the target named is T4, human orexin 2 receptor (Homo sapiens, UniProt O43614).
T4 sequence (O43614 1-444): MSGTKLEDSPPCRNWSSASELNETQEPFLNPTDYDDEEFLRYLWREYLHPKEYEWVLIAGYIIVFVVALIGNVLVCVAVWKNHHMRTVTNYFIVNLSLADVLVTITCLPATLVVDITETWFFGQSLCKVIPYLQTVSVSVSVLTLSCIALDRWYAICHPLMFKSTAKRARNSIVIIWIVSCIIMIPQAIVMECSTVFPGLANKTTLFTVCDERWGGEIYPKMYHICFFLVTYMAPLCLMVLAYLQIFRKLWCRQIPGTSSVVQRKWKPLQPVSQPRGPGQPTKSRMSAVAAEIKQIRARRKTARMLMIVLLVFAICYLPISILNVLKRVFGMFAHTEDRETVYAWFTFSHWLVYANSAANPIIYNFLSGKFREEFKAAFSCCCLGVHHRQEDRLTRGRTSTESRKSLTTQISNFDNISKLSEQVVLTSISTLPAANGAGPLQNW
Briefly: Human OX2 receptor radioligand ([3H]EMPA) competition binding assay. The settings on record: for Selectivity (OX2R/OX1R): Figure 4b.

In another series the test system is OX2R. More on the design: method as in PMID 19751316. The settings on record: cited from earlier work.
Setting [3] is: SD rats pretreated with Elacridar 3 mg/kg 20 min before tracer.

CYP2C9, sequence (P11712 whole entry, species assumed): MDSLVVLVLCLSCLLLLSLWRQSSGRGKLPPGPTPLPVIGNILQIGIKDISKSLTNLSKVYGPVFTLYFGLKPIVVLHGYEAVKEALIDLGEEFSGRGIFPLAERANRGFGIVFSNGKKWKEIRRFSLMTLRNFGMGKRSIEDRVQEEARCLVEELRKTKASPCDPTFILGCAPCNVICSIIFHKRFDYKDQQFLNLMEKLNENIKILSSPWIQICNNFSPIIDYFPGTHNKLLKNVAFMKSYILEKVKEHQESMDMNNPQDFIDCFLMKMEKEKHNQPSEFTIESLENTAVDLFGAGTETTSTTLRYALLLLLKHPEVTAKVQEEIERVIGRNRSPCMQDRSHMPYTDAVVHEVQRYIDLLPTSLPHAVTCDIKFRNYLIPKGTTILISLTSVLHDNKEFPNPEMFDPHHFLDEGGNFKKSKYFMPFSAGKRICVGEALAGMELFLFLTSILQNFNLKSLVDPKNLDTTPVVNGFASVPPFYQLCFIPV
CYP2D6, sequence (P10635 whole entry, species assumed): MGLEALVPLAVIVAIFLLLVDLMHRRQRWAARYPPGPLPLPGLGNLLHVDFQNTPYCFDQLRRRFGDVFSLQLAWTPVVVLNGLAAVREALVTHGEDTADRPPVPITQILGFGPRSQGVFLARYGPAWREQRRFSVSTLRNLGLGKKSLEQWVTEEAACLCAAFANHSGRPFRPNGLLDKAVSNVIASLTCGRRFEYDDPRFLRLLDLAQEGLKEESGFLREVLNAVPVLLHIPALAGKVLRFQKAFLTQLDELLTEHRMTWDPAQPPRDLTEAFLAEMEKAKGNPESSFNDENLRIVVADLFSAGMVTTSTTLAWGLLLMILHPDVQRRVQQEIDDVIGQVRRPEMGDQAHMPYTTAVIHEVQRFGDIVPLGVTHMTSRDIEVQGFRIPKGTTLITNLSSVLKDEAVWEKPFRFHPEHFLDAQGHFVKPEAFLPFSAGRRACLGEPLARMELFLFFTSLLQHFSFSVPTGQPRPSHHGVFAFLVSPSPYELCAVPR
CYP2C19, sequence (P33261 whole entry, species assumed): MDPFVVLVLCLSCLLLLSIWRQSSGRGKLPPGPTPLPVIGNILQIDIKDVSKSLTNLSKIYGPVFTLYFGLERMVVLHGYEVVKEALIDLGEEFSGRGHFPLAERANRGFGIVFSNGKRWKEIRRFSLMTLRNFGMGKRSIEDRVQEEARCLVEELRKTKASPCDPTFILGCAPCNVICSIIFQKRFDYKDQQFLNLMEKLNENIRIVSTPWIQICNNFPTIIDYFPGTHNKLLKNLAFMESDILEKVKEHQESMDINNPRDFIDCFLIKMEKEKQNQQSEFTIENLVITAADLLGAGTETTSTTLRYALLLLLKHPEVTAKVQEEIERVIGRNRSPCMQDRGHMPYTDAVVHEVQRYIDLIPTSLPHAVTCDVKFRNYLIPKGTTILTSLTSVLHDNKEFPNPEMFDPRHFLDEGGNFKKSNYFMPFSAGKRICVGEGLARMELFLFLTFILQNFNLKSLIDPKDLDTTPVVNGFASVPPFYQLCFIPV
CYP3A4, sequence (P08684 whole entry, species assumed): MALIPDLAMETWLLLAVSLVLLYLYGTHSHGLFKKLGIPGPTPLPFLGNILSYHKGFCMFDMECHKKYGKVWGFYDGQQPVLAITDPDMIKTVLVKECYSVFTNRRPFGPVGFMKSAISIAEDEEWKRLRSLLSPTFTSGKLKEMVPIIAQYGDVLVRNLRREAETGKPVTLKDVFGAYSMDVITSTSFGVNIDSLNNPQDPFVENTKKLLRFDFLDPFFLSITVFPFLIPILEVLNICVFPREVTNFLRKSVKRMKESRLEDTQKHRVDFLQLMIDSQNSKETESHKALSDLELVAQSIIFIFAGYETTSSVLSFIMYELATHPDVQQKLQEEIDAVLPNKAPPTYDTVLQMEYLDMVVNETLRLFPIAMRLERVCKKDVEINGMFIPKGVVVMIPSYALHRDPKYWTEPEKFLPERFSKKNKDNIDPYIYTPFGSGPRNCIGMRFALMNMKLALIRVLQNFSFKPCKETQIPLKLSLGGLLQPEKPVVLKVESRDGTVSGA
hERG, sequence (Q12809 whole entry): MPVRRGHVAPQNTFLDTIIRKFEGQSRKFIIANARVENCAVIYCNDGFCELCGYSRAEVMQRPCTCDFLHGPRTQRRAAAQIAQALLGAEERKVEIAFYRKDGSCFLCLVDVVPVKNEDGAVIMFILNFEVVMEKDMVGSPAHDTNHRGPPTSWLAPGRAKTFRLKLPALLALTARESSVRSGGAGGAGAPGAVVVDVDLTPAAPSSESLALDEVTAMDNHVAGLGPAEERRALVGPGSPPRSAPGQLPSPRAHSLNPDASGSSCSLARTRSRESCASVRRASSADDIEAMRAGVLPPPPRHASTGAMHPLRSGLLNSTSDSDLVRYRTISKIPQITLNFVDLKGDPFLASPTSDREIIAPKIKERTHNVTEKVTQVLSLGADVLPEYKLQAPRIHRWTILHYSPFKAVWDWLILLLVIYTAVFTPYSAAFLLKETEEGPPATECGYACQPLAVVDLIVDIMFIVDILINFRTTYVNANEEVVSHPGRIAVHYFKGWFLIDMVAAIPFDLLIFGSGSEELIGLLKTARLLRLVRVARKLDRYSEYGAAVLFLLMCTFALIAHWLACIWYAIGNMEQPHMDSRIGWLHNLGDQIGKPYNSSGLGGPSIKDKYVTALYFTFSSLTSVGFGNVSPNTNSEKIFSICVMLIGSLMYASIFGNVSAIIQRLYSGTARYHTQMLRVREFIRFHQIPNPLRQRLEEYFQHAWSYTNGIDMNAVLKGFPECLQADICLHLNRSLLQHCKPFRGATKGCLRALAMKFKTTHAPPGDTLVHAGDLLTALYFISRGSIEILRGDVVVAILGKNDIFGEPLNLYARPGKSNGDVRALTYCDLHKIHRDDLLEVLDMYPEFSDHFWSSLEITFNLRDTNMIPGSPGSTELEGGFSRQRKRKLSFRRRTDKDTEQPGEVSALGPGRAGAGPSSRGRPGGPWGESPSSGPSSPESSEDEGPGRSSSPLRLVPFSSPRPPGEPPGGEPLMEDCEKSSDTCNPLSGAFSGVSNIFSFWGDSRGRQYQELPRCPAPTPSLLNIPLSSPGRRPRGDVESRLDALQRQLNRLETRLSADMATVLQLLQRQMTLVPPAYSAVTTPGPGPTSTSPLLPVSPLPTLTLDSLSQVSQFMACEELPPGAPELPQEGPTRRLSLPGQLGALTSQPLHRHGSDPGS
Method for CYP1A2: (§1) Human OX2 receptor binding (agonist radioligand) assays were finished by Gifford
(§2) Bioscience Limited. Competition binding assays were carried out in 96-well polypropylene
(§3) plates in a final volume of 250 µL per well. To each well were added 150 µL Human OX2
(§4) Receptor Membranes (MultiSpan Inc, MC1034), 50 µL of non-specific or test compound
(§5) or buffer (50 mM Tris, 5 mM MgCl2, 0.1 mM EDTA, pH 7.4), and 50 µL radioligand
(§6) ([3H]EMPA) solution in the buffer. The plate was incubated at 30 °C for 60 minutes with
(§7) gentle agitation. The incubation was stopped by vacuum filtration onto presoaked (Tris
(§8) buffer with PEI) GF/C filters using a 96-well FilterMate™ harvester, followed by 5 washes
(§9) with ice-cold wash buffer (50 mM Tris, 5 mM MgCl2, 0.1 mM EDTA, pH 7.4). Filters were
(§10) then dried under a warm air stream and sealed in polyethylene, a scintillation cocktail was
(§11) specific binding. Data were fitted using the non-linear curve fitting routines in Prism®
(§12) (Graphpad Software Inc) to determine IC50. Ki was subsequently calculated using the
(§13) CYP enzymes and hERG inhibition assays were finished by Reaction Biology Corporation.
From the text for CYP2C19: as §13
Method for CYP2C9: as §1, §2, §3, §4, §5, §6, §7, §8, §9, §10, §11, §12, §13
From the text for CYP2D6: as §13
From the text for CYP3A4: as §13
Method for hERG: as §1, §2, §3, §4, §5, §6, §7, §8, §9, §10, §11, §12, §13
Method for human orexin 2 receptor: as §1, §2, §3, §4, §5, §6, §7, §8, §9, §10, §11, §12, §13
Method for orexin 2 receptors: 2.5 In vitro autoradiography
The method for in vitro autoradiography was slightly modified from previous reports. 5 Rat
brain was cut into 20 μm sections, stored at −80 °C, and ready for the experiment. The rat
brain sections were preincubated with Tris−HCl buffer (50 mM) containing MgCl2 (2 mM)
and CaCl2 (1.2 mM) for 20 min at ambient temperature, followed by incubation with [11C]1
added to incubation solution. Then the brain sections were washed with ice-cold buffer for
three times and dipped in cold distilled water for 10 s. The brain sections were dried with
cold air. The exposure time for the phosphor plate in the autoradiography study is 1 h .

Turning to `CCN(Cc1ccccc1)C(=O)CN(c1ccc(O[11CH3])nc1)S(=O)(=O)c1ncccc1C` [[^11C]2], the stability in saline entry in series [1] is given as “stable”. For the same compound, the “highest radioactivity levels in hippocampus and cerebellum” value with rat brain (setting [3]) was 0.9 SUV; in the series with rat brain (baseline, SD rats, 2 min postadministration of tracer) it was “around 0.4 SUV”. Further, the “radioactivity level after washout in hippocampus and cerebellum” value in the series with rat brain (setting [3]) stood at 0.3 SUV; in the series with rat brain (baseline, SD rats, 60 min scan), 0.2 SUV. Further, in the series with rat brain (baseline PET, SD rats), the brain uptake entry is “poor brain uptake”. In the series on rat brain (preadministration of EMPA 1 mg/kg i.v., SD rats), the “bound radioactivity levels in hippocampus and cerebellum after blocking” value is recorded as “did not remarkably reduce”. The “in vitro binding specificity” value on orexin 2 receptors is recorded as “good to excellent in vitro binding specificity”.
For `CCN(Cc1ccccc1)C(=O)CN(c1ccccc1OC)S(=O)(=O)c1ncccc1C` [Compound 1], the IC50 was more than 5 µM on CYP19A; more than 5 µM at CYP2C9; more than 5 µM against CYP2C19; more than 5 µM on CYP2D6; more than 5 µM on CYP3A4; more than 100 µM on hERG. The IC50 was more than 5 µM at CYP1A2 and 0.0071 µM on human orexin 2 receptor. The “effect of blocker on radioactivity in OX2-rich brain regions” value at orexin 2 receptors is reported as “remarkably diminished the radioactivity”. In addition, the Ki in series [2] turned out to be 0.253 µM; at human orexin 2 receptor, 0.0036 µM. Also, at human orexin 2 receptor, the “target selectivity OX2/OX1” value is on record as more than 600 folds. Besides, the “Selectivity (OX2R/OX1R)” value on human orexin 2 receptor stood at 601.
“orexin-B: endogenous neuropeptide ligand, a 28 amino acid peptide”: the “selectivity toward OX2R against OX1R” value with OX2R is recorded as more than 10 folds.
Regarding `CCN(Cc1ccccc1)C(=O)CN(c1ccccc1O[11CH3])S(=O)(=O)c1ncccc1C` [[^11C]1], the stability in saline entry in series [1] was “stable”. In addition, the “in vitro binding specificity” value on orexin 2 receptors was “good to excellent in vitro binding specificity”.
In the case of `CCN(Cc1ccccc1)C(=O)CN(c1ccc(OC)nc1)S(=O)(=O)c1ncccc1C` [Compound 2], the IC50 is more than 5 µM at CYP19A; more than 5 µM against CYP2C9; more than 5 µM at CYP2C19; more than 5 µM on CYP2D6; more than 5 µM on CYP3A4; more than 100 µM against hERG. For the same compound, the IC50 was more than 5 µM at CYP1A2 and 0.0044 µM at human orexin 2 receptor (read-out: IC50/OX2, [3H]EMPA competition, human OX2 receptor membranes). Further, on orexin 2 receptors, the “effect of blocker on radioactivity in OX2-rich brain regions” value is listed as “remarkably diminished the radioactivity”. On human orexin 2 receptor, this compound yielded an inhibitory constant (Ki) of 0.0022 µM. The “target selectivity OX2/OX1” value on human orexin 2 receptor was more than 600 folds. Moreover, on human orexin 2 receptor, the “Selectivity (OX2R/OX1R)” value worked out at 1220.
